Patent US12251459B2, “Compositions, formulations, and methods for hair treatment” (Oddity Labs, LLC, priority 2022, dated 2025)

Each compound was assayed on human hair follicle dermal papilla cells (hFDPC) (assay: Human follicle dermal papilla cells (hFDPC) proliferation assay). Details: hFDPCs supplemented with BIO, BMP-2 and FGFβ.
Assay type: cell-based
Excerpt: In Table 8, A represents less than 20% of increased proliferation of hFDPCs, B represents 20-40%, and C represents larger than 40% of increased proliferation of hFDPCs.

Structure (SMILES)	Percent Increase Proliferation of hFDPCs (%)
COc1ccc(N(CC(=O)N2CCN(c3ccccc3OC)CC2)S(=O)(=O)c2ccccc2)cc1 [VII-16, Benzenesulfonamide, N-(4-methoxyphenyl)-N-[2-[4-(2-methoxyphenyl)-1-piperazinyl]-2-oxoethyl]-]	A (A represents less than 20% of increased proliferation of hFDPCs)
NC1=NC2(CCCCCC2)n2c(nc3ccccc32)N1 [VII-9, Spiro[cycloheptane-1, 4′(1′H)-[1,3,5]triazino[1,2-a]benzimidazol]-2′-amine]	B (B represents 20-40%)
CN1C(=O)NC(=O)/C(=C\c2cccc(OCC(=O)O)c2)C1=O [I-14]	A (A represents less than 20% of increased proliferation of hFDPCs)
Cc1ccc(-n2ncc3c(N4CCCCC4)ncnc32)c(C)c1 [V-2, 1H-Pyrazolo[3,4-d] pyrimidine, 1-(2,4-dimethylphenyl)-4-(1-piperidinyl)-]	A (A represents less than 20% of increased proliferation of hFDPCs)
COC(=O)c1cccc(NC(=O)c2cc(NC(=O)c3ccccc3)cc(C(=O)Nc3cccc(C(=O)OC)c3)c2)c1 [VII-23, Benzoic acid, 3,3′-[[5-(benzoylamino)-1,3-phenylene]bis(carbonylimino)] bis-, dimethyl ester (9CI)]	B (B represents 20-40%)
CCCCN1CCc2cc(/C=C3\C(=O)NC(=O)N(C)C3=O)ccc21 [I-12, 2,4,6(1H,3H,5H)-Pyrimidinetrione, 5-[(1-butyl-2,3-dihydro-1H-indol-5-yl)methylene]-1-methyl-]	B (B represents 20-40%)
Cc1ccc(-c2nnc(N3CCN(C(=O)C4CCCCC4)CC3)c3ccccc23)cc1 [II-1, Methanone, cyclohexyl[4-[4-(4-methylphenyl)-1-phthalazinyl]-1-piperazinyl]-]	A (A represents less than 20% of increased proliferation of hFDPCs)
CCOC(=O)c1cnn(-c2ccc(C(=O)Nc3ccc(C(=O)NCC(=O)OC)cc3)cc2)c1C [VII-6, 1H-Pyrazole-4-carboxylic acid, 1-[4-[[[4-[[(2-methoxy-2-oxoethyl)amino]carbonyl]phenyl]amino]carbonyl]phenyl]-5-methyl-, ethyl ester]	A (A represents less than 20% of increased proliferation of hFDPCs)
Cc1ccc(-c2nnc(N3CCN(S(C)(=O)=O)CC3)c3ccccc23)cc1 [II-3, Phthalazine, 1-(4-methylphenyl)-4-[4-(methylsulfonyl)-1-piperazinyl]-]	B (B represents 20-40%)
CC1CCCCN1c1nc(-c2ccccc2)nc2sc(-c3ccccc3)cc12 (centres unmarked) [V-3, Thieno[2,3-d] pyrimidine, 4-(2-methyl-1-piperidinyl)-2,6-diphenyl-]	B (B represents 20-40%)
Cc1ccc(-c2nc3ncccc3o2)cc1NC(=S)NC(=O)c1ccc(C(C)(C)C)cc1 [VII-24, Benzamide, 4-(1,1-dimethylethyl)-N-[[(2-methyl-5-oxazolo[4,5-b]pyridin-2-ylphenyl)amino]thioxomethyl]-]	A (A represents less than 20% of increased proliferation of hFDPCs)
COc1ccc(/C=C2\C(=O)NC(=O)N(C)C2=O)c(OC)c1 [I-11, 2,4,6(1H,3H,5H)-Pyrimidinetrione, 5-[(2,4-dimethoxyphenyl)methylene]-1-methyl-, (5E)-]	A (A represents less than 20% of increased proliferation of hFDPCs)
Cc1cccc(CN2CCN(c3ncccn3)CC2)c1 [VII-15, Pyrimidine, 2-[4-[(3-methylphenyl)methyl]-1-piperazinyl]-]	A (A represents less than 20% of increased proliferation of hFDPCs)
CCS(=O)(=O)n1[nH]c(-c2ccco2)nc1=N [VII-2, 1H-1,2,4-Triazol-5-amine, 1-(ethylsulfonyl)-3-(2-furanyl)-]	A (A represents less than 20% of increased proliferation of hFDPCs)
Cc1cc(C)cc(N2Cc3ccccc3C2)c1 [VII-12, 1H-Isoindole, 2-(3,5-dimethylphenyl)-2,3-dihydro-]	A (A represents less than 20% of increased proliferation of hFDPCs)
CCOCCc1nnc(NC(=O)c2cc(-c3ccccc3)nc3ccccc23)s1 [III-4, 4-Quinolinecarboxamide, N-[5-(2-ethoxyethyl)-1,3,4-thiadiazol-2-yl]-2-phenyl-]	B (B represents 20-40%)

Structure (SMILES)	Percent Increase Proliferation of hFDPCs (%)
CCn1c(SCC(=O)c2ccc(S(=O)(=O)N3CCCC3)cc2)nnc1-c1ccco1 [VII-4, Ethanone, 2-[[4-ethyl-5-(2-furanyl)-4H-1,2,4-triazol-3-yl]thio]-1-[4-(1-pyrrolidinylsulfonyl)phenyl]-]	A (A represents less than 20% of increased proliferation of hFDPCs)
C=CCc1cc(/C=C2\C(=O)NC(=O)N(c3cc(C)cc(C)c3)C2=O)cc(OCC)c1O [I-2, 2,4,6(1H,3H,5H)-Pyrimidinetrione, 1-(3,5-dimethylphenyl)-5-[[3-ethoxy-4-hydroxy-5-(2-propen-1-yl)phenyl]methylene]-]	B (B represents 20-40%)
Cc1ccc(OCC(=O)N2CCN(c3nnc(-c4ccc(C)cc4)c4ccccc34)CC2)cc1 [II-5, Ethanone, 2-(4-methylphenoxy)-1-[4-[4-(4-methylphenyl)-1-phthalazinyl]-1-piperazinyl]-]	B (B represents 20-40%)
CC1(c2ccccc2)NC(=O)N(Cc2cc(=O)n3ccccc3n2)C1=O (centres unmarked) [VII-25, 2,4-Imidazolidinedione, 5-methyl-3-[(4-oxo-4H-pyrido[1,2-a]pyrimidin-2-yl)methyl]-5-phenyl-]	B (B represents 20-40%)
C=CCN1C(=O)NC(=O)/C(=C\c2ccc(OC)cc2OC)C1=O [I-6, 2,4,6(1H,3H,5H)-Pyrimidinetrione, 5-[(2,4-dimethoxyphenyl)methylene]-1-(2-propen-1-yl)-]	A (A represents less than 20% of increased proliferation of hFDPCs)
CCC(C)Cc1c(C)sc2[nH]c(SCc3cc(=O)oc4cc(O)ccc34)nc(=O)c12 (centres unmarked) [IV-4, Thieno[2,3-d] pyrimidin-4(1H)-one, 2-[[(7-hydroxy-2-oxo-2H-1-benzopyran-4-yl)methyl]thio]-6-methyl-5-(2-methylbutyl)-]	A (A represents less than 20% of increased proliferation of hFDPCs)
COc1ccc(CC(=O)Nc2sc3c(c2C(=O)Nc2cccc([N+](=O)[O-])c2)CCC(C)C3)cc1 (centres unmarked) [VII-22, Benzo[b]thiophene-3-carboxamide, 4,5,6,7-tetrahydro-2-[[2-(4-methoxyphenyl)acetyl]amino]-6-methyl-N-(3-nitrophenyl)-]	A (A represents less than 20% of increased proliferation of hFDPCs)
Cc1ccc(-c2cc(C(=O)NNC(=O)NC34CC5CC(CC(C5)C3)C4)c3ccccc3n2)c(C)c1 [III-5, 4-Quinolinecarboxylic acid, 2-(2,4-dimethylphenyl)-, 2-[(tricyclo[3.3.1.1^3,7]dec-1-ylamino)carbonyl]hydrazide]	A (A represents less than 20% of increased proliferation of hFDPCs)
O=C(C1CCN(S(=O)(=O)c2ccccc2)CC1)N1CCN(Cc2ccc3c(c2)OCO3)CC1 [VI-1, Methanone, [4-(1,3-benzodioxol-5-ylmethyl)-1-piperazinyl][1-(phenylsulfonyl)-4-piperidinyl]-]	A (A represents less than 20% of increased proliferation of hFDPCs)
O=C(c1cccs1)N1CCN(C(=O)c2cccc3ccccc23)CC1 [VII-18, Piperazine, 1-(1-naphthalenylcarbonyl)-4-(2-thienylcarbonyl)-(9CI)]	A (A represents less than 20% of increased proliferation of hFDPCs)
CCS(=O)(=O)N1CCN(c2ncnc3cc[nH]c23)CC1 [V-4, 5H-Pyrrolo[3,2-d] pyrimidine, 4-[4-(ethylsulfonyl)-1-piperazinyl]-]	A (A represents less than 20% of increased proliferation of hFDPCs)
Cc1ccc(S(=O)(=O)N2CCC(C(=O)N3CCN(Cc4nc5ccccc5s4)CC3)CC2)cc1 [VI-4, Methanone, [4-(2-benzothiazolylmethyl)-1-piperazinyl][1-[(4-methylphenyl)sulfonyl]-4-piperidinyl]-]	A (A represents less than 20% of increased proliferation of hFDPCs)
Cc1ccc(-c2nn(CC(=O)NCCc3c(C)n(C)c4ccccc34)c(=O)c3ccccc23)cc1S(=O)(=O)N1CCOCC1 [VII-21, 2(1H)-Phthalazineacetamide, N-[2-(1,2-dimethyl-1H-indol-3-yl)ethyl]-4-[4-methyl-3-(4-morpholinylsulfonyl)phenyl]-1-oxo-]	A (A represents less than 20% of increased proliferation of hFDPCs)
CSc1nnc(SCc2cc(=O)oc3cc(O)ccc23)s1 [IV-2, 2H-1-Benzopyran-2-one, 7-hydroxy-4-[[[5-(methylthio)-1,3,4-thiadiazol-2-yl]thio]methyl]-]	A (A represents less than 20% of increased proliferation of hFDPCs)
CCOC(=O)c1cnn(-c2ccc(C(=O)Nc3ccc(S(=O)(=O)CC)cc3)cc2)c1C [VII-7, 1H-Pyrazole-4-carboxylic acid, 1-[4-[[[4-(ethylsulfonyl)phenyl]amino]carbonyl]phenyl]-5-methyl-, ethyl ester]	B (B represents 20-40%)
COc1cc([N+](=O)[O-])cc(/C=C2\C(=O)NC(=O)N(C)C2=O)c1O [I-15, 2,4,6(1H,3H,5H)-Pyrimidinetrione, 5-[(2-hydroxy-3-methoxy-5-nitrophenyl)methylene]-1-methyl-]	B (B represents 20-40%)
